Data taken from ChEMBL document CHEMBL1782020, “Novel 7-phenylsulfanyl-1,2,3,4,10,10a-hexahydro-pyrazino[1,2-a]indoles as dual serotonin 5-HT2C and 5-HT6 receptor ligands” (Bioorg Med Chem Lett, 2010).

Experiments:
[1] = biological target: T1, 5-hydroxytryptamine receptor 2C (Homo sapiens, UniProt P28335); assay: Displacement of [3H]mesulergine from human 5HT2C receptor in human tsA201 cells; assay type: cell-based
T1 sequence (P28335 whole entry): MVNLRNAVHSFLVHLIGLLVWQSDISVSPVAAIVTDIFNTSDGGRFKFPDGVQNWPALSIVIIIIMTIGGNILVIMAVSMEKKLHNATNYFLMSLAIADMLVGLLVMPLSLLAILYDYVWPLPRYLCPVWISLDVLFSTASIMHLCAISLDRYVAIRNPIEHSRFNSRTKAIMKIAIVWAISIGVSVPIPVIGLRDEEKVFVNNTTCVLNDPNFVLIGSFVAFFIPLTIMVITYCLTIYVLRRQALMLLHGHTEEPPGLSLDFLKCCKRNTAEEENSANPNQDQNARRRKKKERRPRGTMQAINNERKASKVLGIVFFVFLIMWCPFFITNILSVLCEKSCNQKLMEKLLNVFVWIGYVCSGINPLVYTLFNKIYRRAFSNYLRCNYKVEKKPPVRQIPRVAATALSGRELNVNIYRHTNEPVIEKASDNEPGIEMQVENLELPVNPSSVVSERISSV

[2] = biological target: 5-hydroxytryptamine receptor 6 (Homo sapiens, UniProt P50406); assay: Displacement of [3H]5-LSD from human 5HT6 receptor expressed in human HeLa cells; assay type: cell-based
Chain of 5-hydroxytryptamine receptor 6 (P50406 whole entry): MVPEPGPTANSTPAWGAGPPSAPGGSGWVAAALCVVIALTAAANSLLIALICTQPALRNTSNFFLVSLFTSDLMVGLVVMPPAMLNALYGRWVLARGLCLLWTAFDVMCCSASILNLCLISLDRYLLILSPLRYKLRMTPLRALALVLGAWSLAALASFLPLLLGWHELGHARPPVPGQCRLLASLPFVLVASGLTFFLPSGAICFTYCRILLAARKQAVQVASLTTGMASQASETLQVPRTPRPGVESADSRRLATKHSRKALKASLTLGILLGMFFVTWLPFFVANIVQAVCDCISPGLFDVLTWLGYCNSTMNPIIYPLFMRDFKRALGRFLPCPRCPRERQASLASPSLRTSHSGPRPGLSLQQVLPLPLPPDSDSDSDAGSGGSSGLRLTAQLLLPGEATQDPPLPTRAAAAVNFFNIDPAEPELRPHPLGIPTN

SMILES | Ki [1] | Ki [2]
c1ccc(Sc2cccc(N3CCNCC3)c2)cc1 | 91 nM | 
COc1ccc(Sc2cccc(N3CCNCC3)c2)cc1 | 74 nM | 
Cc1ccccc1Sc1ccc2c(c1)N1CCNCC1C2 (stereo unspecified) | 49 nM | 81 nM
Cc1cccc(Sc2ccc3c(c2)N2CCNCC2C3)c1 (stereo unspecified) | 77 nM | 50 nM
Cc1ccc(Sc2ccc3c(c2)N2CCNCC2C3)cc1 (stereo unspecified) | 68 nM | 110 nM
COc1ccccc1Sc1ccc2c(c1)N1CCNCC1C2 (stereo unspecified) | 41 nM | 23 nM
COc1cccc(Sc2ccc3c(c2)N2CCNCC2C3)c1 (stereo unspecified) | 120 nM | 110 nM
COc1ccc(Sc2ccc3c(c2)N2CCNCC2C3)cc1 (stereo unspecified) | 57 nM | 78 nM
Fc1ccccc1Sc1ccc2c(c1)N1CCNCC1C2 (stereo unspecified) | 49 nM | 150 nM
Fc1ccc(Sc2ccc3c(c2)N2CCNCC2C3)cc1 (stereo unspecified) | 61 nM | 160 nM
FC(F)(F)c1ccccc1Sc1ccc2c(c1)N1CCNCC1C2 (stereo unspecified) | 83 nM | 330 nM
FC(F)(F)c1cccc(Sc2ccc3c(c2)N2CCNCC2C3)c1 (stereo unspecified) | 180 nM | 300 nM
FC(F)(F)c1ccc(Sc2ccc3c(c2)N2CCNCC2C3)cc1 (stereo unspecified) | 280 nM | 760 nM
NCCc1cccc(Sc2ccccc2)c1 | 150 nM | 
O=C1NCCN1CCN1CCC(c2cn(-c3ccc(F)cc3)c3ccc(Cl)cc23)CC1 [SERTINDOLE] |  | 5 nM
